Read-outs that look alike come from different tables or passages of the source.
Columns and labels:
purified human BChE = target: T1, purified human BChE (Homo sapiens, UniProt P06276); assay: biochemical; assay type: biochemical; conditions: for Ki: human BChE, Ki ± SE, at least three experiments, ATCh substrate
T1 construct: gift of Dr Florian Nachon, Armed Forces Biomedical Research Institute, Brétigny-sur-Orge, France
Procedure: (§1) Acetylthiocholine (ATCh) and 5,5’-dithiobis(2-nitrobenzoic acid) (DTNB) were purchased from Sigma Chemical Co., St. Louis, MO, USA. ATCh was dissolved in water and DTNB in 0.1 M sodium phosphate buffer (pH 7.4). […] Purified human BChE and recombinant human AChE were kindly provided by Dr Florian Nachon (Département de Toxicologie, Armed Forces Biomedical Research Institute, Brétigny-sur-Orge, France). The enzymes were diluted in a phosphate sodium buffer 0.1 M (pH 7.4) containing 0.01% BSA.
(§2) Cholinesterase activity measurements, evaluation of Ki (dissociation constants of enzyme−inhibitor complex) and Ks constants (dissociation constants of enzyme−substrate complex) were performed following procedures described previously. Briefly, enzyme activity was measured spectrophotometrically using a slightly modified Ellman method. […] At least three concentrations of inhibitors for each substrate concentration were used in at least three experiments.
(§3) The y-intercept determines the enzyme–inhibitor dissociation constants (Ki), while the x-intercept determines the enzyme–substrate dissociation constant, KS [57].

[1] = Cytotoxicity MTS assay, HEK293; assay type: cell-based; conditions: 24 h exposure
Procedure: (§4) The human hepatocyte carcinoma HepG2 (ECACC 85011430), human embryo kidney HEK293 (ECACC 85120602) and human neuroblastoma SH-SY5Y (ECACC 94030304) cell lines were obtained from the certified cell-bank European Collection of Authenticated Cell Cultures (ECACC) through Sigma-Aldrich (Steinheim, Germany). HepG2 and HEK293 cells were grown in EMEM and SH-SY5Y in DMEM-F12, as described previously, and cell cultivation and maintenance were conducted according to standard protocol. All media and supplements were purchased from Sigma-Aldrich, Steinheim, Germany.
(§5) The cytotoxic profiles of tested compounds were determined by measuring the succinate dehydrogenase mitochondrial activity of exposed cells. The commercially available MTS detection reagent assay (CellTiter 96® AQueous One Solution Cell Proliferation Assay, Promega, Madison, WI, USA) was used. The procedure followed a previously described protocol. Cells were exposed to compounds in a concentration range of 0.01–1000 µM for 24 h. DMSO (20%) was used as positive control to validate the method. After desired time of incubation at 37 °C in a 5% CO2 atmosphere, cells were washed with PBS buffer and 100 µL of EMEM or DMEM medium and 20 µL of MTS were added in each well, incubated up to 1 h after which the absorbance was read at 492 nm on an Infinite M200PRO plate reader (Tecan Austria GmbH, Salzburg, Austria). Data are presented as percentages of the inhibited cells to control untreated cells, i.e., the percentage of cytotoxicity.

[2] = Cytotoxicity MTS assay, SH-SY5Y; assay type: cell-based; conditions: 24 h exposure
Procedure: HepG2 and HEK293 cells were grown in EMEM and SH-SY5Y in DMEM-F12, as described previously, and cell cultivation and maintenance were conducted according to standard protocol. All media and supplements were purchased from Sigma-Aldrich, Steinheim, Germany.
as §5

recombinant human AChE = target: T2, recombinant human AChE (Homo sapiens, UniProt P22303); assay: Inhibition of human AChE (Ellman method, Hunter–Downs Ki); assay type: biochemical; conditions: for Ki: human AChE, Ki ± SE, at least three experiments, ATCh substrate; for SI = Ki(BChE)/Ki(AChE): selectivity index, AChE over BChE
T2 construct: gift of Dr Florian Nachon, Armed Forces Biomedical Research Institute, Brétigny-sur-Orge, France
T2 sequence (P22303 32-614): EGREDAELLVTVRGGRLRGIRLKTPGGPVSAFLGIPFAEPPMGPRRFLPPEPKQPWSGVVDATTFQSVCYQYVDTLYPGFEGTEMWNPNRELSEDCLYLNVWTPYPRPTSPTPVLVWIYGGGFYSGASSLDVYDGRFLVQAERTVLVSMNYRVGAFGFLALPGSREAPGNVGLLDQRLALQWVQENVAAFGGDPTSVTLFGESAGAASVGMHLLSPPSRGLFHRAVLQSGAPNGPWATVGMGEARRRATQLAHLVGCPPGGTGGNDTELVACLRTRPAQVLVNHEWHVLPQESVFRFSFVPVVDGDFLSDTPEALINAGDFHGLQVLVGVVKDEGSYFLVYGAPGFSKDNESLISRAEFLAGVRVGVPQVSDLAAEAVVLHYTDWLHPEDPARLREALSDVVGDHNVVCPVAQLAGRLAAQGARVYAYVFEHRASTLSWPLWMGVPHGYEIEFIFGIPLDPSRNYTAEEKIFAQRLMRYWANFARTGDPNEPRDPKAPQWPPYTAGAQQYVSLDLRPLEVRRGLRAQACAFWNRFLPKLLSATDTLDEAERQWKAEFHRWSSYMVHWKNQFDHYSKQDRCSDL
Procedure: as §1, §2, §3

[3] = Cytotoxicity MTS assay, HepG2; assay type: cell-based; conditions: 24 h exposure
Procedure: as §4, §5

[4] = FRAP assay (ferric reducing antioxidant power); conditions: 10 µM compound
Procedure: The in vitro antioxidant activity of tested compounds was evaluated using the FRAP assay following a procedure described earlier. […] Trolox and butylated hydroxytoluene (BHT) were used as standard antioxidants. The absorbance was recorded at 593 nm using a microplate reader (SpectraMax iD3, Molecular Devices, San Jose, CA, USA) against a blank. All measurements were taken in three independent triplicates in at least three independent experiments. FRAP values, denominating the reduction of ferric-tripyridyltriazine (Fe^3+-TPTZ) to ferrous tripyridyltriazine (Fe^2+-TPTZ) by the tested compounds, were calculated on the basis of a standard curve obtained using […].

[5] = tested on: HepG2, HEK293 and SH-SY5Y; assay: Cytotoxicity MTS assay, over all three cell lines; assay type: cell-based, human; conditions: 24 h exposure
Procedure: as §4, §5

[6] = Cytotoxicity MTS assay, over all three cell lines; assay type: cell-based, human; conditions: human, HEK293 and SH-SY5Y cells; HepG2, HEK293, SH-SY5Y; 24 h exposure
Procedure: as §4, §5

[7] = human, SH-SY5Y cells, IC50 ± SE

T1 sequence (P06276 29-602): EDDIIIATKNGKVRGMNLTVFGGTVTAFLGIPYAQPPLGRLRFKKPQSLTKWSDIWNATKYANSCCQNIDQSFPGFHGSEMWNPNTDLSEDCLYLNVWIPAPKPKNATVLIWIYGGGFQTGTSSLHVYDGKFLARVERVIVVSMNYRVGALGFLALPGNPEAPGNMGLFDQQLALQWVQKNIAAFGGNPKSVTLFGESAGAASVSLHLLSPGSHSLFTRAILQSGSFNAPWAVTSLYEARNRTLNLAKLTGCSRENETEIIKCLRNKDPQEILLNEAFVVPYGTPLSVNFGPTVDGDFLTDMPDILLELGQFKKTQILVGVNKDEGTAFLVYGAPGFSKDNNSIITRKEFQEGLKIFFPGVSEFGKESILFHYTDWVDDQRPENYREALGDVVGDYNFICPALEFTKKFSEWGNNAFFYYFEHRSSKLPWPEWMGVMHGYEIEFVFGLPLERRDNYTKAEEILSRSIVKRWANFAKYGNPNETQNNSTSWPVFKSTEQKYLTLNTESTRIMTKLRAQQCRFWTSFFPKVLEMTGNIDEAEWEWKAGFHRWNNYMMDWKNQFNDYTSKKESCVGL

Structure (SMILES)	Ki (purified human BChE; Ki BChE)	IC50 at 24 h ([1]; in mM)	IC50 at 24 h ([2]; IC50 ± SE)	Ki (recombinant human AChE)	IC50 at 24 h ([3]; in mM)	Ki (purified human BChE; read-out: Ki BChE)	IC50 at 24 h ([1]; human, HEK293 cells, IC50 ± SE)	IC50 at 24 h [2, 7]	SI = Ki(BChE)/Ki(AChE) (recombinant human AChE)	IC50 at 24 h ([3]; human, HepG2 cells, IC50 ± SE)	FRAP value / reducing power compared with Trolox and BHT [4]	IC50 at 24 h ([1]; human, HEK293 cells, in mM)	IC50 at 24 h ([2]; human, SH-SY5Y cells, in mM)	Toxicity to any tested cell type [5]	IC50 at 24 h ([3]; human, HepG2 cells, in mM)	IC50 at 24 h [6]	FRAP value relative to the FRAP value for BHT [4]	Selectivity to BChE (purified human BChE; BChE over AChE)	AChE inhibition potency, times lower compared to 2 (recombinant human AChE; fold, compared to compound 2)
CCN(CC)Cc1cc(Nc2ccnc3cc(Cl)ccc23)ccc1O [AMQ, Amodiaquine, reference compound]	9.1 ± 0.7 µM	≥ 1 mM	0.134 ± 0.036 mM	46 ± 1 nM	≥ 1 mM	–	–	–	–	–	–	–	–	–	–	–	–	–	–
CCN(CC)Cc1cc(Nc2ccnc3cc(F)ccc23)ccc1O [Compound 1]	–	–	–	170 ± 10 nM	–	13 ± 1 µM	0.09 ± 0.022 mM	0.09 ± 0.01 mM	77	0.219 ± 0.028 mM	not more than 50% lower than those of either Trolox or BHT	–	–	–	–	–	–	–	–
CCN(CC)Cc1cc(Nc2ccnc3cc(C(F)(F)F)ccc23)ccc1O [Compound 2]	–	–	–	75 ± 3 nM	–	7.3 ± 0.8 µM	–	–	97	–	–	≥ 1 mM	≥ 1 mM	not toxic to any tested cell type	≥ 1 mM	–	–	–	–
CCN(CC)Cc1cc(Nc2ccnc3cc(C#N)ccc23)ccc1O [Compound 3]	–	–	–	78 ± 4 nM	–	19 ± 1 µM	0.103 ± 0.003 mM	0.098 ± 0.003 mM	–	0.471 ± 0.019 mM	not more than 50% lower than those of either Trolox or BHT	–	–	–	–	≥ 100 µM	–	–	–
CCN(CC)Cc1cc(Nc2ccnc3cc([N+](=O)[O-])ccc23)ccc1O [Compound 4]	–	–	–	84 ± 3 nM	–	14 ± 1 µM	0.033 ± 0.003 mM	0.026 ± 0.004 mM	–	0.039 ± 0.006 mM	–	–	–	–	–	–	–	–	–
CCN(CC)Cc1cc(Nc2ccnc3cc(OC)ccc23)ccc1O [Compound 5]	–	–	–	25 ± 1 nM	–	7.6 ± 0.4 µM	0.037 ± 0.011 mM	0.036 ± 0.005 mM	300	0.1 ± 0.01 mM	not more than 50% lower than those of either Trolox or BHT	–	–	–	–	–	higher than 50%	–	–
CCN(CC)Cc1cc(Nc2ccnc3ccccc23)ccc1O [Compound 6]	–	–	–	230 ± 10 nM	–	5.9 ± 0.8 µM	0.35 ± 0.04 mM	0.453 ± 0.012 mM	26	–	–	–	–	–	≥ 1 mM	≥ 100 µM	higher than 50%	–	–
CCN(CC)Cc1cc(Nc2ccnc3ccc(F)cc23)ccc1O [Compound 7]	–	–	–	51 ± 2 nM	–	11 ± 1 µM	0.159 ± 0.041 mM	0.181 ± 0.041 mM	–	0.529 ± 0.029 mM	not more than 50% lower than those of either Trolox or BHT	–	–	–	–	≥ 100 µM	–	–	–
CCN(CC)Cc1cc(Nc2ccnc3c(F)cccc23)ccc1O [Compound 8]	–	–	–	510 ± 30 nM	–	5.4 ± 0.5 µM	0.134 ± 0.047 mM	0.085 ± 0.005 mM	11	–	–	–	–	–	≥ 1 mM	–	–	–	–
CCN(CC)Cc1cc(Nc2ccnc3ccc(C(F)(F)F)cc23)ccc1O [Compound 9]	–	–	–	93 ± 3 nM	–	14 ± 1 µM	–	–	–	–	–	≥ 1 mM	≥ 1 mM	not toxic to any tested cell type	≥ 1 mM	≥ 100 µM	–	–	–
CCN(CC)Cc1cc(Nc2ccnc3c(C(F)(F)F)cccc23)ccc1O [Compound 10]	–	–	–	1200 ± 100 nM	–	20 ± 1 µM	0.087 ± 0.033 mM	0.088 ± 0.008 mM	17	–	–	–	–	–	≥ 1 mM	–	–	–	–
CCN(CC)Cc1cc(Nc2cc(C(F)(F)F)nc3ccccc23)ccc1O [Compound 11]	–	–	–	7600 ± 300 nM	–	1.7 ± 0.1 µM	0.025 ± 0.004 mM	0.035 ± 0.005 mM	0.22	0.232 ± 0.068 mM	not more than 50% lower than those of either Trolox or BHT	–	–	–	–	–	–	about five times more selective to BChE	100
CCN(CC)Cc1cc(Nc2ccnc3ccc(C#N)cc23)ccc1O [Compound 12]	–	–	–	190 ± 10 nM	–	21 ± 1 µM	0.088 ± 0.031 mM	0.092 ± 0.017 mM	–	0.276 ± 0.046 mM	–	–	–	–	–	–	–	–	–
CCN(CC)Cc1cc(Nc2ccnc3cccc(C(=O)O)c23)ccc1O [Compound 13]	–	–	–	1300 ± 100 nM	–	16 ± 1 µM	0.103 ± 0.008 mM	0.148 ± 0.017 mM	12	0.546 ± 0.046 mM	–	–	–	–	–	≥ 100 µM	–	–	–
CCN(CCO)Cc1cc(Nc2ccnc3cc(Cl)ccc23)ccc1O [Compound 14]	–	–	–	110 nM	–	6.8 ± 0.3 µM	–	–	62	–	greater potency than both Trolox and BHT	≥ 1 mM	≥ 1 mM	not toxic to any tested cell type	≥ 1 mM	≥ 100 µM	higher than 50%	–	–
